Patent US12076421B2, “Assessment of coronary heart disease with carbon dioxide” (priority 2011, dated 2024)

Assays:
[1] = test system: myocardial blood flow (MBF); assay: 13N-ammonia PET myocardial blood flow, canines without coronary stenosis; format: in vivo; conditions: for mean MBF: absence of stenosis, hypercapnia ~25 mmHg increase in PaCO2, standard dose adenosine; for Global MBF normalized by rate-pressure-product: intact canines, in ml/min/g per mmHg·bpm
Procedure: We investigated whether a physiologically tolerable hypercapnia stimulus ( 25-mmHg increase in PaCO2) can increase myocardial blood flow (MBF) to that observed with adenosine in three groups of canines: (i) without coronary stenosis; (ii) subjected to non-flow limiting coronary stenosis; and (iii) following pre-administration of caffeine. These studies were conducted by prospectively and independently controlling PaCO2 and combining it with ^[…]-ammonia Positron Emission Tomography (PET) measurements, and the extent of effect on MBF due to hypercapnia was compared to adenosine. The objectives of these studies were twofold: to investigate the effects of PaCO2 on MBF while minimizing contributions from factors that can unintentionally reduce or inaccurately report on sensitivity of PaCO2 on MBF; and to assess whether an independent, precise and rapid establishment of physiologically tolerable level of hypercapnia provides equivalent hyperemia as adenosine, a commonly used pharmacological stimulus for cardiac stress testing with and without pre-administration of caffeine. To address these aims, a clinically relevant animal model was used along with validated strategies for (i) precisely and rapidly establishing desired levels of PaCO2, while holding PaO2 constant; (ii) quantifying MBF in vivo; and (iii) image analysis to derive MBF values across the different coronary supply territories. We compared our findings to the effects of standard dose of adenosine in the same animal models with and without coronary stenosis to quantify MBF and flow deficit regions under peak tolerable PaCO2. To determine whether MBF response to PaCO2 overlaps the same mechanistic path as adenosine, we quantified MBF under hypercapnia and adenosine following caffeine administration. Studies were conducted as described in Yang, H-J et al., J. Nucl. Med. 58: 953-960 (2017), which is hereby incorporated by reference in its entirety. […] FIG. 13 is a table summarizing the mean arterial CO2, O2 and hemodynamic variables of interest in Group Intact. FIG. 14A-14D show the mean global MBF and MPR response to hypercapnia in relation to adenosine. Global MBF under adenosine and hypercapnia were both higher than at rest (p<0.05, for both) and were not different from one another (p=0.33). […] Similar observations were evident for regional MBF and MPR with hypercapnia and adenosine. The observed range of MBF at rest (0.44 to 1.93 ml/min/g) and adenosine (0.47 to 5.10 ml/min/g) and range of MPR under adenosine (1.20 to 4.57) across the animals is consistent with previous reports (Kuhle, W. G. et al., Circulation 86:1004-1017 (1992)).

[2] = test system: myocardial blood flow (MBF); assay: 13N-ammonia PET myocardial blood flow following pre-administration of caffeine; format: in vivo, canines; conditions: for MBF response relative to rest: following caffeine administration
Procedure: These studies were conducted by prospectively and independently controlling PaCO2 and combining it with ^13N-ammonia Positron Emission Tomography (PET) measurements, and the extent of effect on MBF due to hypercapnia was compared to adenosine.
The objectives of these studies were twofold: to investigate the effects of PaCO2 on MBF while minimizing contributions from factors that can unintentionally reduce or inaccurately report on sensitivity of PaCO2 on MBF; and to assess whether an independent, precise and rapid establishment of physiologically tolerable level of hypercapnia provides equivalent hyperemia as adenosine, a commonly used pharmacological stimulus for cardiac stress testing with and without pre-administration of caffeine. To address these aims, a clinically relevant animal model was used along with validated strategies for (i) precisely and rapidly establishing desired levels of PaCO2, while holding PaO2 constant; (ii) quantifying MBF in vivo; and (iii) image analysis to derive MBF values across the different coronary supply territories. […] To determine whether MBF response to PaCO2 overlaps the same mechanistic path as adenosine, we quantified MBF under hypercapnia and adenosine following caffeine administration. Studies were conducted as described in Yang, H-J et al., J. Nucl. Med. 58: 953-960 (2017), which is hereby incorporated by reference in its entirety.

myocardium [3] = assay: Myocardial BOLD MRI response to PaCO2 modulation while PaO2 is held constant; format: in vivo, canines
Procedure: In Examples 1-6, all imaging studies were performed in instrumented animals with a Doppler flow probe attached to the LAD coronary arteries for measurement of flow changes in response to CO2 and clinical dose of adenosine. In these studies, CO2 and O2 delivery were tightly controlled using […]. […] At each CO2 level, free-breathing and cardiac gated blood-oxygen-level-dependent (BOLD) acquisitions were prescribed at mid diastole and Doppler flow velocities were measured. Similar acquisitions were also performed with block sequences of CO2 levels; that is, CO2 levels were alternated between 40 and 50 mmHg and BOLD images (and corresponding Doppler flow velocities) were acquired at each CO2 level to assess the reproducibility of the signal changes associated with different CO2 levels. Each delivery of CO2 using […] was made in conjunction with arterial blood draw to determine the arterial blood CO2 levels. […] We assessed the difference between myocardial blood-oxygen-level dependent (BOLD) response under hypercarbia and normocarbia conditions in canines. The BOLD signal intensity is proportional to oxygen saturation. […] The lower panel depicts the difference as obtained by subtracting the signal under rest from that under stress. […] We further assessed the myocardial BOLD response to stepwise CO2 increase (ramp-up) in canines. […] To further evaluate vascular reactivity and coronary response to CO2, we measured the myocardial BOLD signal in response to block increases of CO2 in canines. Specifically, the myocardial BOLD signal was measured as the amount of CO2 administered to the canine subjects alternated between 40 mmHg CO2 and 50 mmHg CO2. […] The myocardium is supplied with blood by the left anterior descending (LAD) artery, the right coronary artery (RCA) and the left circumflex (LCX) artery. We measured the blood flow through each of these arteries in response to increasing CO2 supply. As shown in FIG. 6 and summarized in FIG. 7, in each of the three LAD, RCA and LCX arteries, there is a direct correlation between the amount of CO2 administered and the signal intensity; as the amount of administered CO2 increases, the signal intensity, signaling the blood flow, in each of the three arteries increases. Further, as shown in FIG. 6 and summarized in FIG. 8, there was no response to CO2 modulation in control territories such as blood, skeletal muscle or air. […] Vascular reactivity of three canines that were administered with adenosine was compared with the vascular reactivity of canines that were administered with CO2. As shown in FIGS. 10A and 10B, the hyperemic adenosine stress BOLD response was approximately 12% compared with 16% in response to CO2.

LAD coronary arteries = assay: Epicardial flow enhancement, Carbogen against clinical dose of adenosine; format: in vivo, dogs; conditions: Carbogen with ETCO2 reaching 48-50 mm Hg
Procedure: (§1) In Examples 1-6, all imaging studies were performed in instrumented animals with a Doppler flow probe attached to the LAD coronary arteries for measurement of flow changes in response to CO2 and clinical dose of adenosine. In these studies, CO2 and O2 delivery were tightly controlled using Respiract. CO2 values were incremented in steps of 10 mmHg starting from 30 mmHg to 60 mmHg and were ramped down in decrements of 10 mmHg. At each CO2 level, free-breathing and cardiac gated blood-oxygen-level-dependent (BOLD) acquisitions were prescribed at mid diastole and Doppler flow velocities were measured. Similar acquisitions were also performed with block sequences of CO2 levels; that is, CO2 levels were alternated between 40 and 50 mmHg and BOLD images (and corresponding Doppler flow velocities) were acquired at each CO2 level to assess the reproducibility of the signal changes associated with different CO2 levels. Each delivery of CO2 using Respiract was made in conjunction with arterial blood draw to determine the arterial blood CO2 levels.
In detail, the color images (lower panel of FIG. 1) are color-coded to the signal intensities of grayscale images (above). The darker colors (blue/black) represent territories of baseline myocardial oxygenation and the brighter regions represent those regions that are hyperemic. […]

[4] = test system: myocardial blood flow (MBF); assay: 13N-ammonia PET myocardial blood flow and perfusion defect, canines with LAD coronary stenosis; format: in vivo; conditions: for regional MBF versus rest: all territories (LAD, LCx, RCA); for regional MBF versus rest / MBF increase in the LAD territory: p<0.05; for MBF increase in the LAD territory: compared with LCx and RCA territories
Procedure: We investigated whether a physiologically tolerable hypercapnia stimulus ( 25-mmHg increase in PaCO2) can increase myocardial blood flow (MBF) to that observed with adenosine in three groups of canines: (i) without coronary stenosis; (ii) subjected to non-flow limiting coronary stenosis; and (iii) following pre-administration of caffeine. These studies were conducted by prospectively and independently controlling PaCO2 and combining it with ^[…]-ammonia Positron Emission Tomography (PET) measurements, and the extent of effect on MBF due to hypercapnia was compared to adenosine. The objectives of these studies were twofold: to investigate the effects of PaCO2 on MBF while minimizing contributions from factors that can unintentionally reduce or inaccurately report on sensitivity of PaCO2 on MBF; and to assess whether an independent, precise and rapid establishment of physiologically tolerable level of hypercapnia provides equivalent hyperemia as adenosine, a commonly used pharmacological stimulus for cardiac stress testing with and without pre-administration of caffeine. To address these aims, a clinically relevant animal model was used along with validated strategies for (i) precisely and rapidly establishing desired levels of PaCO2, while holding PaO2 constant; (ii) quantifying MBF in vivo; and (iii) image analysis to derive MBF values across the different coronary supply territories. We compared our findings to the effects of standard dose of adenosine in the same animal models with and without coronary stenosis to quantify MBF and flow deficit regions under peak tolerable PaCO2. To determine whether MBF response to PaCO2 overlaps the same mechanistic path as adenosine, we quantified MBF under hypercapnia and adenosine following caffeine administration. Studies were conducted as described in Yang, H-J et al., J. Nucl. Med. 58: 953-960 (2017), which is hereby incorporated by reference in its entirety. […] FIGS. 16A, 16B, 16E show the mean regional MBF in LAD, left circumflex artery (LCx) and right coronary artery (RCA) supply territories at rest, hypercapnia and adenosine. MBF values were not different at rest among the different supply territories (p>0.4, for all). […] MBF under hypercapnia was not different between the LCx and RCA territories (hypercapnia: p=0.21); the same was true under adenosine (p=0.50). For each myocardial supply territory, MBF under hypercapnia and adenosine were not different (p=1.00, for all). […] MPR under hypercapnia was not different between the LCx and RCA territories (hypercapnia: p=0.59); the same was true under adenosine (p=0.34). For each myocardial supply territory, MPR under hypercapnia and adenosine were not different (p>0.5 for all). […] Perfusion defect volumes and visual scoring under hypercapnia vs. adenosine were determined. TRP obtained under hypercapnia and adenosine were not different: 25±19% (hypercapnia) vs. 27±15% (adenosine); p=0.12. Direct comparison of TRP within the same subjects under hypercapnia and adenosine were highly correlated (R=0.85, p<0.05) and were in good agreement (bias=2%). Similar trends were observed from visual scoring analysis. No difference between the scores from hypercapnia and adenosine was observed from a paired sampled Wilcoxon signed rank test (p=0.26). Visual scores between hypercapnia and adenosine were concordant with most segments falling onto the diagonal of the scoring matrix (FIG. 18).

[5] = test system: left anterior descending (LAD) artery; assay: Doppler flow in the left anterior descending artery in response to PaCO2 modulation; format: in vivo, canines; conditions: increasing amount of administered CO2, PaO2 held constant
Procedure: as §1
The Doppler flow was measured in the left anterior descending (LAD) artery. […] The relative change in coronary flow velocity was directly proportional to the amount of CO2 administered.

myocardium [6] = assay: Myocardial BOLD response to PaCO2 in human volunteers; format: in vivo, humans; conditions: early human data, pCO2 change of 10 mmHg, from 35 mmHg to 45 mmHg

| SMILES | mean MBF [1] | Global MBF normalized by rate-pressure-product [1] | MBF response relative to rest [2] | global MPR ([2]; under caffeine, p<0.05) | hyperemic BOLD response (myocardium [3]; canines, mean, adenosine stress in three canines) | epicardial flow enhancement response (LAD coronary arteries) | total reduction in perfusion volume (TRP, % LV) between stress and rest [4] | regional MBF versus rest [4] | MBF increase in the LAD territory [4] | resting MBF normalized by rate-pressure-product ([2]; post-administration of caffeine (1.5×10^−5 pre-administration, p=0.03)) | BOLD signal intensity (myocardium [3]; block increase from 40 mmHg CO2 to 50 mmHg CO2, canines) | BOLD signal intensity (myocardium [3]; hypercarbia (60 mm Hg) vs normocarbia (30 mmHg), canines) | signal intensity, signaling the blood flow, in LAD, RCA and LCX arteries (myocardium [3]; increasing amount of administered CO2) | BOLD signal intensity (myocardium [3]; stepwise CO2 increase (ramp-up), canines) | Doppler flow in LAD artery [5] | hyperemic response (BOLD) (myocardium [6]) |
| --- | --- | --- | --- | --- | --- | --- | --- | --- | --- | --- | --- | --- | --- | --- | --- | --- |
| Nc1ncnc2c1ncn2[C@@H]1O[C@H](CO)[C@@H](O)[C@H]1O [adenosine, reference compound] | 2.2 ± 1.1 mL/min/g | 1.16×10^−5±0.80×10^−5 | no change in MBF | lower than under hypercapnia | approximately 12% | about 20% | 27±15% | increased | significantly lower than in the LCx and RCA territories | – | – | – | – | – | – | – |
| Cn1c(=O)c2c(ncn2C)n(C)c1=O [caffeine] | – | – | – | – | – | – | – | – | – | 1.0×10^−5 | – | – | – | – | – | – |
| O=C=O [CO2, carbon dioxide] | 2.1 ± 0.9 mL/min/g | 1.26×10^−5±0.56×10^−5 | able to induce myocardial hyperemia | – | – | – | 25±19% | increased | significantly lower than in the LCx and RCA territories | – | increase in BOLD signal intensity | increase in BOLD signal intensity | increases | increases | increases | approximately 11% |
